The supplement of paper PMC10307832

Assays:
Assay in all cases: relative viability (nuclei count vs DMSO), 5 days (fraction); higher = more cells survive
Nelarabine + Pemetrexed = compound: COc1nc(N)nc2c1ncn2[C@@H]1O[C@H](CO)[C@@H](O)[C@@H]1O [Nelarabine] + Nc1nc2[nH]cc(CCc3ccc(C(=O)N[C@@H](CCC(=O)O)C(=O)O)cc3)c2c(=O)[nH]1 [Pemetrexed] (partner 0.2 µM)
Procedure, shortened: (§1)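 Lung cancer cell lines in 1536-well plates got either a single drug or a fixed anchor-drug dose together with five library-drug doses (not always all listed) in √10 steps, by pin tool, on the day after seeding. Nuclei were counted after 5 days, and relative viability is the treated-to-vehicle ratio of nuclei counts. Values are medians of duplicate plates.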

Adavosertib + Alpelisib = compound: C=CCn1c(=O)c2cnc(Nc3ccc(N4CCN(C)CC4)cc3)nc2n1-c1cccc(C(C)(C)O)n1 [Adavosertib] + Cc1nc(NC(=O)N2CCC[C@H]2C(N)=O)sc1-c1ccnc(C(C)(C)C(F)(F)F)c1 [Alpelisib] (partner 2 µM)
Procedure, shortened: as §1

Nelarabine = compound: COc1nc(N)nc2c1ncn2[C@@H]1O[C@H](CO)[C@@H](O)[C@@H]1O [Nelarabine]
Procedure, shortened: (§2)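 Viability was read as treated-well nuclei divided by vehicle-well nuclei, using the median across plates. Lung cancer cell lines in 1536-well plates were kept overnight at 37 °C, pinned with five √10-spaced library-drug doses, and after 5 days were Hoechst-stained, imaged at 4× and counted in MetaXpress. Plates passed only with control CV below 25% and at least one doubling.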

Adavosertib = compound: C=CCn1c(=O)c2cnc(Nc3ccc(N4CCN(C)CC4)cc3)nc2n1-c1cccc(C(C)(C)O)n1 [Adavosertib]
Procedure, shortened: as §2

| Cell Line | relative viability (Nelarabine + Pemetrexed; first compound 0.01 µM) | relative viability (Nelarabine + Pemetrexed; first compound 0.03162 µM) | relative viability (Nelarabine + Pemetrexed; first compound 0.1 µM) | relative viability (Nelarabine + Pemetrexed; first compound 0.3162 µM) | relative viability (Nelarabine + Pemetrexed; first compound 1 µM) | relative viability (Adavosertib + Alpelisib; first compound 0.01 µM) | relative viability (Adavosertib + Alpelisib; first compound 0.03162 µM) | relative viability (Adavosertib + Alpelisib; first compound 0.1 µM) | relative viability (Adavosertib + Alpelisib; first compound 0.3162 µM) | relative viability (Nelarabine; 0.01 µM) | relative viability (Nelarabine; 0.03162 µM) | relative viability (Nelarabine; 0.1 µM) | relative viability (Nelarabine; 0.3162 µM) | relative viability (Nelarabine; 1 µM) | relative viability (Adavosertib; 0.01 µM) | relative viability (Adavosertib; 0.03162 µM) | relative viability (Adavosertib; 0.1 µM) | relative viability (Adavosertib; 0.3162 µM) |
| --- | --- | --- | --- | --- | --- | --- | --- | --- | --- | --- | --- | --- | --- | --- | --- | --- | --- | --- |
| NCI-H1666 | 0.957 | 0.919 | 0.872 | 0.936 | 0.834 | 0.85 | 0.889 | 0.934 | 0.796 | 1.05 | 1.15 | 0.978 | 0.97 | 0.967 | 0.975 | 1 | 1.05 | 0.997 |
| NCI-H1734 | 0.416 | 0.473 | 0.368 | 0.48 | 0.464 | 0.728 | 0.69 | 0.707 | 0.624 | 1.16 | 0.96 | 0.997 | 1.02 | 1.05 | 1.03 | 0.972 | 1 | 0.676 |
| NCI-H1755 | 0.654 | 0.377 | 0.363 | 0.501 | 0.451 | 0.983 | 0.859 | 0.856 | 0.868 | 1.01 | 0.948 | 0.988 | 1.1 | 1.1 | 1.02 | 0.998 | 0.958 | 0.86 |
| NCI-H1792 | 1.09 | 0.658 | 1.58 | 0.937 | 0.824 | 0.67 | 0.649 | 0.697 | 0.48 | 0.973 | 0.928 | 1.16 | 1.06 | 0.855 | 0.749 | 0.915 | 0.75 | 0.895 |
| NCI-H1793 | 1.04 | – | 1.07 | 0.962 | 0.88 | 0.746 | 0.6 | 0.752 | 0.637 | 1.09 | 0.775 | 1.1 | 1.09 | 1 | 0.787 | 0.835 | 0.885 | 1.09 |
| NCI-H1915 | 0.676 | 0.539 | 0.561 | 0.658 | 0.699 | 1.07 | 1.07 | 1.13 | 1.15 | 1.15 | 1.03 | 1.02 | 1 | 1.05 | 0.999 | 1.01 | 1.06 | 0.996 |
| NCI-H1944 | 0.659 | 0.584 | 0.589 | 0.617 | 0.61 | 0.822 | 0.774 | 0.645 | 0.666 | 1.15 | 0.984 | 1 | 0.987 | 0.869 | 0.953 | 0.926 | 0.959 | 0.807 |
| NCI-H1975 | 0.376 | 0.278 | 0.312 | 0.305 | 0.303 | 0.736 | 0.63 | 0.546 | 0.339 | 1.21 | 1.01 | 1.14 | 1.17 | 1.04 | 0.971 | 0.899 | 0.935 | 0.759 |
| NCI-H1993 | 0.632 | 0.477 | 0.598 | 0.64 | 0.67 | 0.733 | 0.65 | 0.723 | 0.68 | 1.03 | 0.863 | 1.02 | 0.959 | 0.987 | 0.9 | 0.996 | 0.925 | 1.1 |
